The source of these data is ChEMBL document CHEMBL1697781, “Assessment of the health effects of chemicals in humans: II. Construction of an adverse effects database for QSAR modeling” (Curr Drug Discov Technol, 2004).

Common to all, as to details: human
Data set [1] concerns Hepatotoxicity. The data set is described as follows: FDA HLAED, alkaline phosphatase increase.
Data set [2] has as its system Hepatotoxicity. In words: FDA HLAED, serum glutamic pyruvic transaminase (SGPT) increase.
Data set [3] relates to Hepatotoxicity. The data set is described as follows: FDA HLAED, serum glutamic oxaloacetic transaminase (SGOT) increase.
Data set [4] has as its system Hepatotoxicity. In words: FDA HLAED, liver enzyme composite activity.
Data set [5] deals with Hepatotoxicity. The data set is described as follows: FDA HLAED, gamma-glutamyl transferase (GGT) increase.
For GGT Increase - Index Value in this document: reference of the scale not given here.

Consider `Oc1ncnc2[nH]ncc12` [ALLOPURINOL], for which, in data set [1], the “Alkaline Phosphatase Increase - Activity Score” value is on record as “Active”, the “Alkaline Phosphatase Increase - Index Value” is 4.7 and the “Alkaline Phosphatase Increase - Number of Reports” value is on record as “>= 4”. In data set [2], the “SGPT Increase - Activity Score” value is given as “Active”, the “SGPT Increase - Index Value” amounted to 9.4 and the “SGPT Increase - Number of Reports” value was “>= 4”. For the same compound, in data set [3], the “SGOT Increase - Activity Score” value is on record as “Active”, the “SGOT Increase - Index Value” was found to be 15 and the “SGOT Increase - Number of Reports” value is “>= 4”. Besides, in data set [4], the “Composite Activity - Active” value was 4, the “Composite Activity - Marginal” value is reported as 0 and the “Composite Activity - Score” value was “Active”. For the same compound, in data set [5], the “GGT Increase - Activity Score” value is listed as “Active”, the “GGT Increase - Index Value” came out at 9.4 and the “GGT Increase - Number of Reports” value is listed as “>= 4”.
For `Cn1cnc([N+](=O)[O-])c1Sc1ncnc2nc[nH]c12` [AZATHIOPRINE], in data set [1], the “Alkaline Phosphatase Increase - Activity Score” value is listed as “Active”, the “Alkaline Phosphatase Increase - Index Value” turned out to be 4.5 and the “Alkaline Phosphatase Increase - Number of Reports” value was “>= 4”. Besides, in data set [2], the “SGPT Increase - Activity Score” value is given as “Active”, the “SGPT Increase - Index Value” is reported as 5.6 and the “SGPT Increase - Number of Reports” value was “>= 4”. In data set [3], the “SGOT Increase - Activity Score” value is reported as “Active”, the “SGOT Increase - Index Value” is recorded as 5 and the “SGOT Increase - Number of Reports” value is reported as “>= 4”. Also, in data set [4] (Liver), the “Composite Activity - Active” value is on record as 3, the “Composite Activity - Marginal” value is 1 and the “Composite Activity - Score” value is given as “Active”. Besides, in data set [5], the “GGT Increase - Activity Score” value is listed as “Marginally Active”, the “GGT Increase - Index Value” came to 3.3 and the “GGT Increase - Number of Reports” value is on record as “>= 4”.
As to `NC(=O)N1c2ccccc2C=Cc2ccccc21` [CARBAMAZEPINE], in data set [1], the “Alkaline Phosphatase Increase - Activity Score” value was “Marginally Active”, the “Alkaline Phosphatase Increase - Index Value” was found to be 3.3 and the “Alkaline Phosphatase Increase - Number of Reports” value is listed as “>= 4”. Moreover, in data set [4], the “Composite Activity - Active” value amounted to 1 and the “Composite Activity - Marginal” value was 1. In data set [5], the “GGT Increase - Activity Score” value is “Active”, the “GGT Increase - Index Value” was found to be 4.4 and the “GGT Increase - Number of Reports” value is “>= 4”.
With `Clc1cccc(Cl)c1N=C1NCCN1` [CLONIDINE], in data set [1], the “Alkaline Phosphatase Increase - Activity Score” value is given as “Active”, the “Alkaline Phosphatase Increase - Index Value” stood at 11.5 and the “Alkaline Phosphatase Increase - Number of Reports” value is “>= 4”. Also, in data set [2], the “SGPT Increase - Activity Score” value is on record as “Active”, the “SGPT Increase - Index Value” worked out at 7.6 and the “SGPT Increase - Number of Reports” value was “>= 4”. Besides, in data set [4] (Liver), the “Composite Activity - Active” value is on record as 2, the “Composite Activity - Marginal” value stood at 0 and the “Composite Activity - Score” value is recorded as “Active”. Also, in data set [5], the “GGT Increase - Activity Score” value is “Active”, the “GGT Increase - Index Value” stood at 9.5 and the “GGT Increase - Number of Reports” value is recorded as “>= 4”.
Take `CN(C)CCC=C1c2ccccc2COc2ccccc21` [DOXEPIN]: in data set [1], the “Alkaline Phosphatase Increase - Activity Score” value is on record as “Active”, the “Alkaline Phosphatase Increase - Index Value” stood at 434.8 and the “Alkaline Phosphatase Increase - Number of Reports” value is less than 4. Also, in data set [4], the “Composite Activity - Active” value turned out to be 2, the “Composite Activity - Marginal” value came to 0 and the “Composite Activity - Score” value is given as “Active”. For the same compound, in data set [5], the “GGT Increase - Activity Score” value is “Active”, the “GGT Increase - Index Value” is 434.8 and the “GGT Increase - Number of Reports” value was less than 4.
As to `CCN(CC)CCOc1ccc(/C(=C(/Cl)c2ccccc2)c2ccccc2)cc1` [ENCLOMIPHENE], in data set [2], the “SGPT Increase - Activity Score” value is given as “Active”, the “SGPT Increase - Index Value” was determined as 25 and the “SGPT Increase - Number of Reports” value is reported as “>= 4”. For the same compound, in data set [3], the “SGOT Increase - Activity Score” value is “Active”, the “SGOT Increase - Index Value” is listed as 18.8 and the “SGOT Increase - Number of Reports” value is on record as “>= 4”. In data set [4], the “Composite Activity - Active” value was 3, the “Composite Activity - Marginal” value is on record as 0 and the “Composite Activity - Score” value is “Active”. In data set [5], the “GGT Increase - Activity Score” value is “Active”, the “GGT Increase - Index Value” came out at 15.6 and the “GGT Increase - Number of Reports” value is “>= 4”.
As for `CCOC(=O)CCC(=O)O[C@H]1[C@H](O[C@@H]2[C@@H](C)[C@H](O[C@H]3C[C@@](C)(OC)[C@@H](O)[C@H](C)O3)[C@@H](C)C(=O)O[C@H](CC)[C@@](C)(O)[C@H](O)[C@@H](C)C(=O)[C@H](C)C[C@@]2(C)O)O[C@H](C)C[C@@H]1N(C)C` [ERYTHROMYCIN ETHYLSUCCINATE], in data set [1], the “Alkaline Phosphatase Increase - Activity Score” value is “Active”, the “Alkaline Phosphatase Increase - Index Value” is listed as 7.3 and the “Alkaline Phosphatase Increase - Number of Reports” value was “>= 4”. Besides, in data set [2], the “SGPT Increase - Activity Score” value is “Active”, the “SGPT Increase - Index Value” is 8.5 and the “SGPT Increase - Number of Reports” value is on record as “>= 4”. In addition, in data set [3], the “SGOT Increase - Activity Score” value is reported as “Active”, the “SGOT Increase - Index Value” worked out at 7.9 and the “SGOT Increase - Number of Reports” value is listed as “>= 4”. In data set [4], the “Composite Activity - Active” value was 3, the “Composite Activity - Marginal” value was 0 and the “Composite Activity - Score” value is “Active”.
On to `CCC(=O)O[C@H]1[C@H](O[C@@H]2[C@@H](C)[C@H](O[C@H]3C[C@@](C)(OC)[C@@H](O)[C@H](C)O3)[C@@H](C)C(=O)O[C@H](CC)[C@@](C)(O)[C@H](O)[C@@H](C)C(=O)[C@H](C)C[C@@]2(C)O)O[C@H](C)C[C@@H]1N(C)C` [ERYTHROMYCIN PROPIONATE], for which, in data set [1], the “Alkaline Phosphatase Increase - Activity Score” value is given as “Active”, the “Alkaline Phosphatase Increase - Index Value” was 7.3 and the “Alkaline Phosphatase Increase - Number of Reports” value is “>= 4”. For the same compound, in data set [2], the “SGPT Increase - Activity Score” value is “Active”, the “SGPT Increase - Index Value” is listed as 8.5 and the “SGPT Increase - Number of Reports” value was “>= 4”. Also, in data set [3], the “SGOT Increase - Activity Score” value is “Active”, the “SGOT Increase - Index Value” turned out to be 7.9 and the “SGOT Increase - Number of Reports” value is on record as “>= 4”. In data set [4], the “Composite Activity - Active” value is 3, the “Composite Activity - Marginal” value was 0 and the “Composite Activity - Score” value is “Active”.
As to `CC[C@H]1OC(=O)[C@H](C)[C@@H](O[C@H]2C[C@@](C)(OC)[C@@H](O)[C@H](C)O2)[C@H](C)[C@@H](O[C@@H]2O[C@H](C)C[C@H](N(C)C)[C@H]2O)[C@](C)(O)C[C@@H](C)C(=O)[C@H](C)[C@@H](O)[C@]1(C)O` [ERYTHROMYCIN], in data set [1], the “Alkaline Phosphatase Increase - Activity Score” value is recorded as “Active”, the “Alkaline Phosphatase Increase - Index Value” amounted to 7.3 and the “Alkaline Phosphatase Increase - Number of Reports” value is on record as “>= 4”. In data set [2], the “SGPT Increase - Activity Score” value is recorded as “Active”, the “SGPT Increase - Index Value” is given as 8.5 and the “SGPT Increase - Number of Reports” value is “>= 4”. Moreover, in data set [3], the “SGOT Increase - Activity Score” value is on record as “Active”, the “SGOT Increase - Index Value” came out at 7.9 and the “SGOT Increase - Number of Reports” value is “>= 4”. Moreover, in data set [4], the “Composite Activity - Active” value is given as 3, the “Composite Activity - Marginal” value was 0 and the “Composite Activity - Score” value is given as “Active”.
For the compound `COC1=CC(=O)C[C@@H](C)[C@]12Oc1c(Cl)c(OC)cc(OC)c1C2=O` [GRISEOFULVIN], in data set [1], the “Alkaline Phosphatase Increase - Activity Score” value is “Active”, the “Alkaline Phosphatase Increase - Index Value” came out at 5.5 and the “Alkaline Phosphatase Increase - Number of Reports” value was “>= 4”. For the same compound, in data set [2], the “SGPT Increase - Activity Score” value is “Active”, the “SGPT Increase - Index Value” is 6.9 and the “SGPT Increase - Number of Reports” value is “>= 4”. For the same compound, in data set [3], the “SGOT Increase - Activity Score” value is on record as “Active”, the “SGOT Increase - Index Value” was determined as 5.5 and the “SGOT Increase - Number of Reports” value is recorded as “>= 4”. In data set [4], the “Composite Activity - Active” value is 4, the “Composite Activity - Marginal” value worked out at 0 and the “Composite Activity - Score” value is on record as “Active”. In data set [5], the “GGT Increase - Activity Score” value is “Active”, the “GGT Increase - Index Value” turned out to be 5.5 and the “GGT Increase - Number of Reports” value is recorded as less than 4.
As to `CC(C)Cc1ccc(C(C)C(=O)O)cc1` (stereo unspecified) [IBUPROFEN], in data set [1], the “Alkaline Phosphatase Increase - Activity Score” value is “Marginally Active”, the “Alkaline Phosphatase Increase - Index Value” is recorded as “No Shipping Units” and the “Alkaline Phosphatase Increase - Number of Reports” value is “>= 4”. Also, in data set [2], the “SGPT Increase - Activity Score” value is recorded as “Marginally Active”, the “SGPT Increase - Index Value” is “No Shipping Units” and the “SGPT Increase - Number of Reports” value was “>= 4”. In addition, in data set [3], the “SGOT Increase - Activity Score” value is on record as “Marginally Active”, the “SGOT Increase - Index Value” is listed as “No Shipping Units” and the “SGOT Increase - Number of Reports” value is on record as “>= 4”. In addition, in data set [4], the “Composite Activity - Active” value was 0 and the “Composite Activity - Marginal” value was determined as 3.
As for `NNCCc1ccccc1` [PHENELZINE], in data set [2], the “SGPT Increase - Activity Score” value is given as “Active”, the “SGPT Increase - Index Value” is on record as 4.9 and the “SGPT Increase - Number of Reports” value was “>= 4”. Further, in data set [3], the “SGOT Increase - Activity Score” value was “Active”, the “SGOT Increase - Index Value” is 4.9 and the “SGOT Increase - Number of Reports” value was “>= 4”. Also, in data set [4] (Liver), the “Composite Activity - Active” value came to 3, the “Composite Activity - Marginal” value was determined as 0 and the “Composite Activity - Score” value is on record as “Active”. For the same compound, in data set [5], the “GGT Increase - Activity Score” value is “Active”, the “GGT Increase - Index Value” is 4.9 and the “GGT Increase - Number of Reports” value is “>= 4”.
For the compound `CC(=O)CC(c1ccccc1)c1c(O)c2ccccc2oc1=O` (stereo unspecified) [WARFARIN], in data set [1], the “Alkaline Phosphatase Increase - Activity Score” value was “Marginally Active”, the “Alkaline Phosphatase Increase - Index Value” is on record as “No Shipping Units” and the “Alkaline Phosphatase Increase - Number of Reports” value was “>= 4”. In addition, in data set [2], the “SGPT Increase - Activity Score” value is on record as “Marginally Active”, the “SGPT Increase - Index Value” was “No Shipping Units” and the “SGPT Increase - Number of Reports” value is given as “>= 4”. Moreover, in data set [3], the “SGOT Increase - Activity Score” value is on record as “Marginally Active”, the “SGOT Increase - Index Value” is “No Shipping Units” and the “SGOT Increase - Number of Reports” value is “>= 4”. Further, in data set [4], the “Composite Activity - Active” value is listed as 0 and the “Composite Activity - Marginal” value is 3.
